Values of other authors in patent US20190203207A1, “Anabolic Enhancers for Ameliorating Neurodegeneration” (priority 2016, published 2019).
Entries after “also recorded” stand apart in the source; their conditions may differ.

Test system: insulin/mTOR signaling pathway

insulin
GLUT1 and HIF1a levels (insulin injection, four RP mouse models): increased levels | Cone survival / cone degeneration (systemic insulin, four RP mouse models (Punzo et al.)): encouraged cone survival; also recorded: delay degeneration of cones
